Assay results reported in PubChem BioAssay AID330 (DTP/NCI, 2004).
Values joined by “and” are separate entries in the source; they are usually repeats but may differ in a detail not shown here. Equal entries are not always repeated. Toxic doses and inconclusive results are not listed.

System: P388 leukemia ip, CD2F1 mice, survival T/C
Assay: NCI In Vivo Anticancer Drug Screen. Data for tumor model P388 Leukemia (intraperitoneal) in CD2F1 (CDF1) mice
Conditions: endpoint: median survival time, higher = longer survival
Outline: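 Mice carrying the transplanted tumor received test compound or vehicle. Survival was recorded in each group, and the value is the treated-group measurement divided by that of the vehicle-treated control group.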

[1] = dose: 50.0 mg/kg/injection, schedule: Q01DX009 (ip), vehicle: saline with Tween-80
[2] = dose: 100.0 mg/kg/injection, schedule: Q01DX009 (ip), vehicle: saline with Tween-80
[3] = dose: 100.0 mg/kg/injection, schedule: Q04DX003 (ip), vehicle: saline with Tween-80
[4] = dose: 200.0 mg/kg/injection, schedule: Q04DX003 (ip), vehicle: saline with Tween-80
[5] = dose: 400.0 mg/kg/injection, schedule: Q04DX003 (ip), vehicle: saline with Tween-80
[6] = dose: 50.0 mg/kg/injection, schedule: Q01DX005 (ip), vehicle: saline with Tween-80
[7] = dose: 100.0 mg/kg/injection, schedule: Q01DX005 (ip), vehicle: saline with Tween-80
[8] = dose: 200.0 mg/kg/injection, schedule: Q01DX005 (ip), vehicle: saline with Tween-80
[9] = dose: 50.0 mg/kg/injection, schedule: Q01DX005 (ip), vehicle: Klucel (hydroxypropylcellulose) (HPC)
[10] = dose: 100.0 mg/kg/injection, schedule: Q01DX005 (ip), vehicle: Klucel (hydroxypropylcellulose) (HPC)
[11] = dose: 50.0 mg/kg/injection, schedule: Q01DX009 (ip), vehicle: saline
[12] = dose: 100.0 mg/kg/injection, schedule: Q01DX009 (ip), vehicle: saline
[13] = dose: 25.0 mg/kg/injection, schedule: Q01DX005 (ip), vehicle: Klucel (hydroxypropylcellulose) (HPC)
[14] = dose: 200.0 mg/kg/injection, schedule: Q01DX005 (ip), vehicle: Klucel (hydroxypropylcellulose) (HPC)
[15] = dose: 12.5 mg/kg/injection, schedule: Q01DX005 (ip), vehicle: Klucel (hydroxypropylcellulose) (HPC)

Cc1nc2cc3c(=O)n(C)cnc3cc2n1Cc1ccccc1
T/C (dose: 12.5 mg/kg/injection, schedule: Q04DX002 (ip), vehicle: Klucel (hydroxypropylcellulose) (HPC)): 104 % of control
T/C (dose: 25.0 mg/kg/injection, schedule: Q04DX002 (ip), vehicle: Klucel (hydroxypropylcellulose) (HPC)): 104 % of control
T/C (dose: 50.0 mg/kg/injection, schedule: Q04DX002 (ip), vehicle: Klucel (hydroxypropylcellulose) (HPC)): 107 % of control

CCOC(=O)Nc1nn(-c2ccccn2)c(=O)[nH]1
T/C (dose: 50.0 mg/kg/injection, schedule: Q01DX005 (ip), vehicle: distilled water + alcohol): 107 % of control
T/C (dose: 100.0 mg/kg/injection, schedule: Q01DX005 (ip), vehicle: distilled water + alcohol): 101 % of control
T/C (dose: 200.0 mg/kg/injection, schedule: Q01DX005 (ip), vehicle: distilled water + alcohol): 99 % of control

COc1cc(C)c(C(CC(=O)O)CC(=O)N(CCCl)CCCl)cc1C(C)C (stereo not given)
T/C (dose: 100.0 mg/kg/injection, schedule: Q01DX003 (ip), vehicle: saline): 102 % of control
T/C (dose: 200.0 mg/kg/injection, schedule: Q01DX003 (ip), vehicle: saline): 100 % of control
T/C (dose: 400.0 mg/kg/injection, schedule: Q01DX003 (ip), vehicle: saline): 100 % of control

Cc1cccc(OCC(O)CNC(C)(C)C)c1C (stereo not given)
T/C (dose: 12.5 mg/kg/injection, schedule: Q01DX009 (ip), vehicle: saline with Tween-80): 99 % of control
T/C (dose: 25.0 mg/kg/injection, schedule: Q01DX009 (ip), vehicle: saline with Tween-80): 98 % of control
T/C [1]: 99 % of control
T/C [2]: 99 % of control

Cc1ccc(S(=O)(=O)Nc2cc(C)c3c(c2C)CCN=C3)cc1
T/C (dose: 12.5 mg/kg/injection, schedule: Q01DX009 (ip), vehicle: distilled water + Tween-80): 93 % of control
T/C (dose: 25.0 mg/kg/injection, schedule: Q01DX009 (ip), vehicle: distilled water + Tween-80): 91 % of control
T/C (dose: 50.0 mg/kg/injection, schedule: Q01DX009 (ip), vehicle: distilled water + Tween-80): 88 % of control
T/C (dose: 100.0 mg/kg/injection, schedule: Q01DX009 (ip), vehicle: distilled water + Tween-80): 93 % of control
T/C (dose: 200.0 mg/kg/injection, schedule: Q01DX009 (ip), vehicle: distilled water + Tween-80): 91 % of control

COC(=O)c1[nH]cc2ccccc12
T/C [3]: 98 % of control
T/C [4]: 104 % of control
T/C [5]: 102 % of control

CCCCCCCNc1ncnc2[nH]ncc12
T/C [6]: 112 % of control
T/C [7]: 107 % of control
T/C [8]: 107 % of control

CNC(=O)c1cccc2c(Nc3ccc(NS(C)(=O)=O)cc3OC)c3cccc(C)c3nc12
T/C (dose: 1.56 mg/kg/injection, schedule: Q01DX005 (ip), vehicle: water): 163 % of control
T/C (dose: 3.0 mg/kg/injection, schedule: Q01DX005 (ip), vehicle: water): 175 % of control
T/C (dose: 3.12 mg/kg/injection, schedule: Q01DX005 (ip), vehicle: water): 169 % of control
T/C (dose: 6.25 mg/kg/injection, schedule: Q01DX005 (ip), vehicle: water): 218 % of control
T/C (dose: 12.5 mg/kg/injection, schedule: Q01DX005 (oral), vehicle: water): 151 % of control

CC(C)(C=O)COC1OCN(C(C)(C)C)CC1(C)C (stereo not given)
T/C [1]: 104 % of control
T/C [2]: 122 % of control

COc1cc(C(=O)Oc2c(OC)cc(C(=O)c3cc4c(cc3C)OCO4)cc2OC)cc(OC)c1OC
T/C [9]: 88 % of control
T/C [10]: 88 % of control

O=S1(=O)c2ccccc2N(c2ccccc2)c2nccn21
T/C (dose: 100.0 mg/kg/injection, schedule: Q01DX001 (ip), vehicle: saline with Tween-80): 101 % of control
T/C (dose: 200.0 mg/kg/injection, schedule: Q01DX001 (ip), vehicle: saline with Tween-80): 98 % of control
T/C (dose: 400.0 mg/kg/injection, schedule: Q01DX001 (ip), vehicle: saline with Tween-80): 92 % of control

COC(=O)N1CC2[C@H](O)[C@H](O)C1ON2c1ccccc1 (stereo not given in full)
T/C (dose: 60.0 mg/kg/injection, schedule: Q01DX005 (ip), vehicle: Klucel (hydroxypropylcellulose) (HPC)): 101 % of control
T/C (dose: 120.0 mg/kg/injection, schedule: Q01DX005 (ip), vehicle: Klucel (hydroxypropylcellulose) (HPC)): 94 % of control
T/C (dose: 240.0 mg/kg/injection, schedule: Q01DX005 (ip), vehicle: Klucel (hydroxypropylcellulose) (HPC)): 93 % of control

CCCN(CCC)CC(C)O (stereo not given)
T/C (dose: 25.0 mg/kg/injection, schedule: Q01DX009 (ip), vehicle: saline): 95 % of control
T/C [11]: 100 % of control
T/C [12]: 95 % of control

Cc1cc(=O)oc2cc(OCc3c(F)cccc3Cl)ccc12
T/C (dose: 60.0 mg/kg/injection, schedule: Q01DX005 (ip), vehicle: saline with Tween-80): 97 % of control
T/C (dose: 120.0 mg/kg/injection, schedule: Q01DX005 (ip), vehicle: saline with Tween-80): 90 % of control
T/C (dose: 240.0 mg/kg/injection, schedule: Q01DX005 (ip), vehicle: saline with Tween-80): 91 % of control

O=C(NNC(=O)C12CC3CC(CC(C3)C1)C2)C12CC3CC(CC(C3)C1)C2
T/C [13]: 105 % of control
T/C [9]: 102 % of control
T/C [10]: 105 % of control
T/C [14]: 105 % of control

COP(=O)(O)OC.[Th]
T/C [1]: 118 % of control
T/C [2]: 88 % of control
T/C (dose: 200.0 mg/kg/injection, schedule: Q01DX009 (ip), vehicle: saline with Tween-80): 90 % of control

CCOC(=O)/C(=C(\C)N)n1[nH]c(=O)ccc1=O
T/C (dose: 100.0 mg/kg/injection, schedule: Q04DX002 (ip), vehicle: saline): 98 % of control
T/C (dose: 200.0 mg/kg/injection, schedule: Q04DX002 (ip), vehicle: saline): 100 % of control
T/C (dose: 400.0 mg/kg/injection, schedule: Q04DX002 (ip), vehicle: saline): 100 % of control

BrC1C2CCC3OC3CCC12 (stereo not given)
T/C [3]: 101 % of control
T/C [4]: 92 % of control
T/C [5]: 97 % of control

COC(=O)c1nc(=S)[nH]c(C(=O)OC)c1C(=O)c1cccc2ccccc12
T/C (dose: 60.0 mg/kg/injection, schedule: Q01DX005 (ip), vehicle: Klucel + Tween-80): 102 % of control
T/C (dose: 120.0 mg/kg/injection, schedule: Q01DX005 (ip), vehicle: Klucel + Tween-80): 95 % of control
T/C (dose: 240.0 mg/kg/injection, schedule: Q01DX005 (ip), vehicle: Klucel + Tween-80): 92 % of control

Cc1cc(=O)c2c(ccc3cc4ccccc4cc32)[nH]1
T/C [6]: 98 % of control
T/C [7]: 98 % of control
T/C [8]: 97 % of control

Cc1ccc(C(=O)C(C#N)=Nc2ccc(N(C)C)cc2)cc1
T/C [15]: 92 % of control
T/C [9]: 87 % of control and 91 % of control
T/C [10]: 92 % of control
T/C [14]: 99 % of control

OC1COC(O)(CN2CCOCC2)C(O)C1O (stereo not given)
T/C [6]: 100 % of control
T/C [7]: 98 % of control
T/C [8]: 97 % of control

CN(C)C(C)(C#N)C(N)=O (stereo not given)
T/C (dose: 1.56 mg/kg/injection, schedule: Q04DX003 (ip), vehicle: saline): 103 % of control and 93 % of control
T/C (dose: 3.12 mg/kg/injection, schedule: Q04DX003 (ip), vehicle: saline): 101 % of control
T/C (dose: 6.25 mg/kg/injection, schedule: Q04DX003 (ip), vehicle: saline): 100 % of control and 96 % of control and 98 % of control

NC1=NC(c2ccccc2O)CC(=O)N1 (stereo not given)
T/C [11]: 103 % of control
T/C [12]: 111 % of control
T/C (dose: 200.0 mg/kg/injection, schedule: Q01DX009 (ip), vehicle: saline): 110 % of control

NCCCO[C@H]1CO[C@H]2[C@@H]1OC[C@H]2OCCCN
T/C (dose: 50.0 mg/kg/injection, schedule: Q01DX005 (ip), vehicle: saline): 100 % of control
T/C (dose: 100.0 mg/kg/injection, schedule: Q01DX005 (ip), vehicle: saline): 102 % of control

CC1NC(C)c2c(ccc3ccccc23)O1 (stereo not given)
T/C [6]: 100 % of control
T/C [7]: 100 % of control
T/C [8]: 97 % of control

CCOC(=O)C1C/C(=N\OS(=O)(=O)c2ccc(C)cc2)c2ccc(OC)c(OC)c2C1 (stereo not given)
T/C (dose: 25.0 mg/kg/injection, schedule: Q01DX009 (ip), vehicle: other): 92 % of control
T/C (dose: 50.0 mg/kg/injection, schedule: Q01DX009 (ip), vehicle: other): 89 % of control
T/C (dose: 100.0 mg/kg/injection, schedule: Q01DX009 (ip), vehicle: other): 87 % of control
T/C (dose: 400.0 mg/kg/injection, schedule: Q01DX009 (ip), vehicle: other): 97 % of control

Nc1nc(Cl)c2[nH]c(Cl)nc2n1
T/C [15]: 104 % of control
T/C [13]: 102 % of control
T/C [9]: 100 % of control and 96 % of control
T/C [10]: 99 % of control
